Drawing on patent publication US9359346B2, “Benzamide derivative and use thereof” (VIVOZON, INC., priority 2011, dated 2016), this text covers inhibition, 5HT2A % inhibition and GlyT2 % inhibition for 39 molecules.

Structures are written as SMILES. Where two headings read alike, the source gives them in different places.

One assay has as its target 5HT2A (Homo sapiens, UniProt P28223). Kind of assay: FLIPR calcium assay for 5HT2A target activity (transfected HEK293 cells). Type of assay: cell-based.
The next assay has as its target T1, GlyT2 (Rattus norvegicus, UniProt P58295).
T1 construct: expressed in transfected cells
T1 sequence (P58295 1-799): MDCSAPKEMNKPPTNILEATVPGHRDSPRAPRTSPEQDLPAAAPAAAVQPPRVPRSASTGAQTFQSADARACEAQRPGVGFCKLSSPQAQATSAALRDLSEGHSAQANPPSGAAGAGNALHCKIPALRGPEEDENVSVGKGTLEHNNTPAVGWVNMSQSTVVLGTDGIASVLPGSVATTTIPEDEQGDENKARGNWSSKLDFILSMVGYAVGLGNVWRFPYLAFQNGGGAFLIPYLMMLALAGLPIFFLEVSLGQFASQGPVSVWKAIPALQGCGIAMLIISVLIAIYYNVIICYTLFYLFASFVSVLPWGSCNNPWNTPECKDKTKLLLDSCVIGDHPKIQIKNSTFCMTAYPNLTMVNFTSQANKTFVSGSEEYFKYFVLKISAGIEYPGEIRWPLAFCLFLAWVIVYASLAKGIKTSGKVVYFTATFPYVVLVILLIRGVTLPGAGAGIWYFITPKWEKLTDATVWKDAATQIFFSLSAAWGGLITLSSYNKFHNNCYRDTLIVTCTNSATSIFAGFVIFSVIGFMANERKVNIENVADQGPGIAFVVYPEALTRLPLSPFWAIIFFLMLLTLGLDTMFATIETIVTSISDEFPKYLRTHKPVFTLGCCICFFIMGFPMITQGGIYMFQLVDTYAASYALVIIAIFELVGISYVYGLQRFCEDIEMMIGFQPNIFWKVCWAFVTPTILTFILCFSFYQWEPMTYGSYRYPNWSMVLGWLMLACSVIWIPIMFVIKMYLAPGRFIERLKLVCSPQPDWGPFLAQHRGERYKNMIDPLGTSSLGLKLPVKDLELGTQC
Description: FLIPR membrane potential assay for GlyT2 target activity (T-rex-293-rGlyT2 cells). It is filed as cell-based. The settings on record: for inhibition at 10 µM: read-out: GlyT2 % inhibition. The procedure:
GlyT2 (Glycine transporter type 2) is an electrogenic carrier associated with Na^+/Cl^− ion transportation, primarily distributed around the spinal cord part, and has an important role in the transfer of a pain signal in the spinal cord.
In order to identify the fact that the novel compound of the present invention has GlyT2 targeting activity, a membrane potential assay was performed. FLIPR Membrane Potential Assay is used to measure ion channel modulation caused by an increase or decrease in fluorescence signal due to variations of cellular membrane potential.
First, pcDNA4/TO vector encoding GlyT2 of the rat in HEK293 cell was transfected to prepare a stable recombinant cell line, i.e., T-rex-293-rGlyT2. A […] (Greiner #655090) coated with poly-D-lysine was prepared, and the above recombinant cells (T-rex-293-rGlyT2) were seeded at 3.2×10^4/well therein using a medium containing 15 μg/ml of tetracycline. After this, incubation was conducted at 37° C. for 48 hours under 5% CO2 conditions to express GlyT2. 10 ml of assay buffer (1×HBSS, 20 mM HEPES, pH 7.4) was added to a blue dye solution and sufficiently dissolved therein to prepare a membrane potential dye solution. After removing the medium from the well showing GlyT2 expression, the membrane potential dye solution was added to the well in an amount of 100 μl/well and incubated for 20 minutes.
According to the FLIPR Membrane Potential Assay kit's protocol, SoftMax Pro Software of FlexStation 3 software (Molecular Devices, US) was set up. An extent of GlyT2 expression was determined such that the extent of cellular membrane depolarization relative to an administered amount of glycine during glycine treatment is indicated in relative fluorescence units (RFU), and RFU (Max-Min) is calculated by subtracting the minimum value from the maximum value of RFU. After firstly treating 10 uM of the novel compound according to the present invention, glycine was treated and RFU (Max-Min) for glycine administration was determined. Then, with the determined result, the extent of depolarization inhibition (% inhibition) was assessed for each compound, compared to a positive control.
The positive control used herein was ORG25543 (500 nM) having strong inhibitory efficacy specific to GlyT2.
For GlyT2 inhibitory efficacy, the efficacy of the compound ORG25543 (500 nM) was defined as 100%. Similarly, for 5HT2A inhibitory efficacy, the efficacy of MDL11939 (100 nM) was defined as 100%. Therefore, the target inhibitory efficacy of each compound was indicated in a relative value compared to the above defined efficacy.

Where [1] appears, read: HEK293, 10 uM compound, then serotonin, relative to MDL11939 (100 nM) defined as 100%, read-out: 5HT2A % inhibition.
Where [2] appears, read: 10 uM compound, then glycine, relative to ORG25543 (500 nM) defined as 100%.
Where [3] appears, read: HEK293, read-out: 5HT2A % inhibition.

5HT2A, sequence (P28223 whole entry, species assumed): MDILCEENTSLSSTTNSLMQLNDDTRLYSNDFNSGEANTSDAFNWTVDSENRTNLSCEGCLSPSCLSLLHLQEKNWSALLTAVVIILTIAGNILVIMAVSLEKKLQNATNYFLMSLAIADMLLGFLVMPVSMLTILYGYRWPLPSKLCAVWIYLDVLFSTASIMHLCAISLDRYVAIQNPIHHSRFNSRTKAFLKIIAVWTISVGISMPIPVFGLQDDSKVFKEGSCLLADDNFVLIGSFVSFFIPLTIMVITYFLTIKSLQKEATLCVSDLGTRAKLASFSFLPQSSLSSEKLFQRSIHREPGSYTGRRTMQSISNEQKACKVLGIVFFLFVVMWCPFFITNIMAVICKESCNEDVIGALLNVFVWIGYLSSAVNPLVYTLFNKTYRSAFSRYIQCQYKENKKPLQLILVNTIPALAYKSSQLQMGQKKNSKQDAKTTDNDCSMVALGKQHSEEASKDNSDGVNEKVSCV

Turning to `COc1cc(C(=O)N[C@H]2CN3CCC2CC3)cc(OC)c1OCc1ccccc1` [VVZ-003], the inhibition at 10 µM on 5HT2A (setting [1]) worked out at 31.6%; at GlyT2 (setting [2]), 78.2%.
In the case of `COc1cc(C(=O)NCCN2CCOCC2)cc(OC)c1OCc1ccccc1` [VVZ-006], the inhibition at 10 µM at 5HT2A (setting [3]) worked out at 89.8%; on GlyT2 (setting [2]), 48.9%.
With `COc1cc(C(=O)NCC2CCCCN2C)cc(OC)c1OCc1ccccc1` (stereo not drawn) [VVZ-009], the inhibition at 10 µM on 5HT2A (setting [1]) stood at 90.4%; at GlyT2 (setting [2]), 117%.
With `COc1cc(C(=O)NCC(c2ccccc2)N(C)C)cc(OC)c1OCc1ccccc1` (stereo not drawn) [VVZ-010], the 5HT2A % inhibition at 5HT2A is recorded as 108.1%. In addition, the GlyT2 % inhibition on GlyT2 worked out at 102.5%.
On to `COc1cc(C(=O)N[C@@H]2CCN(Cc3ccccc3)C2)cc(OC)c1OCc1ccccc1` [VVZ-011], for which the inhibition at 10 µM turned out to be 56.2% on 5HT2A (setting [1]) and 88.8% at GlyT2 (setting [2]).
For `CCN1CCC[C@@H]1CNC(=O)c1cc(OC)c(OCc2ccccc2)c(OC)c1` [VVZ-012] the same measures were 76.1% and 118%.
Turning to `COc1cc(C(=O)NC2CCN(Cc3ccccc3)C2)cc(OC)c1OCc1ccccc1` (stereo not drawn) [VVZ-013], the inhibition at 10 µM at 5HT2A (setting [1]) came to 48.5%; at GlyT2 (setting [2]) it was 72.9%.
Regarding `CCN1CCC[C@H]1CNC(=O)c1cc(OC)c(OCc2ccccc2)c(OC)c1` [VVZ-014], the results for the inhibition at 10 µM on 5HT2A (setting [1]) and on GlyT2 (setting [2]) were 93.6% and 75%, respectively.
For `COc1ccc(C(CNC(=O)c2cc(OC)c(OCc3ccccc3)c(OC)c2)N2CCCC2)cc1` (stereo not drawn) [VVZ-015] the same measures were 57% and 108%.
With `COc1cc(C(=O)NCC2(N(C)C)CCC(F)(F)CC2)cc(OC)c1OCc1ccccc1` [VVZ-016], the inhibition at 10 µM was found to be 97.5% at 5HT2A (setting [3]) and 109% on GlyT2.
On to `COc1cc(C(=O)NCC(c2ccccc2)N2CCOCC2)cc(OC)c1OCc1ccccc1` (stereo not drawn) [VVZ-018], for which the inhibition at 10 µM on 5HT2A (setting [3]) came to 70.7%; at GlyT2 it was 76.8%.
For `COc1cc(C(=O)NCC(c2ccccc2)N(C)C)cc(OC)c1OCc1ccccc1` (stereo not drawn) [VVZ-020] the same measures were 94.1% and 103%.
With `COc1cc(C(=O)NCC2(N(C)C)CC=C(F)CC2)cc(OC)c1OCc1ccccc1` (stereo not drawn) [VVZ-028], the inhibition at 10 µM on 5HT2A (setting [3]) was 93.9%; on GlyT2 (setting [2]) it was 87.9%.
Turning to `CCCCOc1c(OC)cc(C(=O)NC[C@H]2CCCN2CC)cc1OC` [VVZ-029], the inhibition at 10 µM on 5HT2A (setting [1]) is 71.3%; on GlyT2 (setting [2]), 46%.
On to `CCCCOc1c(OC)cc(C(=O)NCC(c2ccccc2)N(C)C)cc1OC` (stereo not drawn) [VVZ-033], for which the inhibition at 10 µM at 5HT2A (setting [3]) came to 97.1%; on GlyT2, 105%.
Turning to `COc1cc(C(=O)NCC(c2ccccc2)N2CCCC2)cc(OC)c1OCc1ccccc1` (stereo not drawn) [VVZ-035], the inhibition at 10 µM at 5HT2A (setting [1]) is 101%; at GlyT2 (setting [2]) it was 84.8%.
On to `COc1cc(C(=O)NCC2(N(C)C)CCOCC2)cc(OC)c1OCc1ccccc1` [VVZ-036], for which the results for the inhibition at 10 µM on 5HT2A (setting [3]) and at GlyT2 were 66.1% and 103%, respectively.
On the same counts, the results for `COc1cc(C(=O)NCC2(N(C)C)CCCCC2)cc(OC)c1OCc1ccccc1` [VVZ-037] are 99.8% and 100%.
Consider `O=C(c1cccc(C(F)(F)F)c1)N1CCN(CCc2ccccc2)CC1` [VVZ-042], for which the inhibition at 10 µM at 5HT2A (setting [1]) was found to be 107%; on GlyT2 (setting [2]), 34.4%.
Take `Cc1cc(C(=O)NCC(c2ccccc2)N(C)C)cc(C)c1OCc1ccccc1` (stereo not drawn) [VVZ-046]: the inhibition at 10 µM was determined as 54.2% on 5HT2A (setting [3]) and 113% on GlyT2.
In the case of `COc1cc(N)c(Cl)cc1C(=O)N[C@H]1CN2CCC1CC2` [VVZ-047], the inhibition at 10 µM turned out to be 78.8% at 5HT2A (setting [1]) and 23.4% on GlyT2 (setting [2]).
On the same counts, the results for `CCN(C)C1(CNC(=O)c2cc(OC)c(OCc3ccccc3)c(OC)c2)CC=C(F)CC1` (stereo not drawn) [VVZ-050] are 108% and 117%.
As for `CN(C)C(CNC(=O)c1ccc(OCc2ccccc2)cc1)c1ccccc1` (stereo not drawn) [VVZ-051], the inhibition at 10 µM at 5HT2A (setting [3]) was found to be 95%; at GlyT2, 110%.
For `CCCCOc1ccc(C(=O)NCC(c2ccccc2)N(C)C)cc1` (stereo not drawn) [VVZ-052] the same measures were 103% and 76.6%.
Consider `CCCCOc1c(C)cc(C(=O)NCC2(O)CCN(C)CC2)cc1C` [VVZ-053], for which the figures for the inhibition at 10 µM at 5HT2A (setting [1]) and at GlyT2 (setting [2]) were 31.4% and 59.6%, respectively.
For `Cc1cc(C(=O)NCC2(O)CCN(C)CC2)cc(C)c1OCc1ccccc1` [VVZ-054], the inhibition at 10 µM turned out to be 57.1% on 5HT2A (setting [1]) and 82.9% at GlyT2 (setting [2]).
On the same counts, the results for `COc1cc(N)c(Cl)cc1C(=O)NCC1(O)CCN(C)CC1` [VVZ-055] are 146% and 55.3%.
With `CCCCOc1c(C)cc(C(=O)NCC(c2ccccc2)N(C)C)cc1C` (stereo not drawn) [VVZ-057], the inhibition at 10 µM on 5HT2A (setting [3]) is 65.7%; on GlyT2 it was 101%.
On the same counts, the results for `Cc1cc(C(=O)NCC2(N(C)C)CCC(F)(F)CC2)cc(C)c1OCc1ccccc1` [VVZ-058] are 134% and 102%.
For `Cc1cc(C(=O)NCC2(N3CCN(C)CC3)CCCCC2)cc(C)c1OCc1ccccc1` [VVZ-063] the same measures were 76.7% and 112%.
On to `CN(C)C1(CNC(=O)c2ccc(OCc3ccccc3)cc2)CCOCC1` [VVZ-065], for which, on 5HT2A, the 5HT2A % inhibition stood at 107.8%. On GlyT2, the GlyT2 % inhibition was found to be 105.1%.
Turning to `CN1CCN(C2(CNC(=O)c3ccc(OCc4ccccc4)cc3)CCCCC2)CC1` [VVZ-069], the inhibition at 10 µM on 5HT2A (setting [3]) came out at 150%; at GlyT2, 83.9%.
On the same counts, the results for `COc1cc(C(=O)NCC2(N3CCN(C)CC3)CCOCC2)cc(OC)c1OCc1ccccc1` [VVZ-071] are 60.8% and 78.8%.
For `CN1CCN(C2(CNC(=O)c3ccc(OCc4ccccc4)cc3)CCOCC2)CC1` [VVZ-072] the same measures were 101% and 59.1%.
On the same counts, the results for `COc1cc(C(=O)NCC2(N3CCOCC3)CCOCC2)cc(OC)c1OCc1ccccc1` [VVZ-074] are 155% and 73.5%.
As to `O=C(NCC1(N2CCOCC2)CCOCC1)c1ccc(OCc2ccccc2)cc1` [VVZ-076], the inhibition at 10 µM was found to be 113% at 5HT2A (setting [3]) and 50.6% on GlyT2.
With `Cc1cc(C(=O)NC(CN2CCOCC2)c2ccccc2)cc(C)c1OCc1ccccc1` (stereo not drawn) [VVZ-080], the values for the inhibition at 10 µM on 5HT2A (setting [1]) and on GlyT2 (setting [2]) were 113% and 40.6%, respectively.
On to `O=C(NCC(c1ccccc1)N1CCOCC1)c1ccc(OCc2ccccc2)cc1` (stereo not drawn) [VVZ-081], for which the inhibition at 10 µM at 5HT2A (setting [3]) was 71.5%; on GlyT2, 45.3%.
On to `COc1cc(C(=O)NCC2(NCc3ccccc3)CCOCC2)cc(OC)c1OCc1ccccc1` [VVZ-084], for which the inhibition at 10 µM on 5HT2A (setting [1]) was 94.4%; on GlyT2 (setting [2]), 79%.
